The results in this text go back to patent US9150577B2, “Heterocyclic compounds containing an indole core” (Boehringer Ingelheim International GmbH, priority 2009, dated 2015).

For this test, the target named is Human RSK2 (Homo sapiens (Human), UniProt P51812). Nature of the test: Human RSK2 assay (Kinase Glo Plus, residual ATP).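 Also: recombinant human RSK2 phosphorylating a substrate peptide, 90 min at 28 °C, leftover ATP read by luminescence, RLU scaled between no-kinase background and uninhibited kinase controls, 4-parameter fit.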 It is filed as biochemical.
Sequence of Human RSK2 (P51812 whole entry): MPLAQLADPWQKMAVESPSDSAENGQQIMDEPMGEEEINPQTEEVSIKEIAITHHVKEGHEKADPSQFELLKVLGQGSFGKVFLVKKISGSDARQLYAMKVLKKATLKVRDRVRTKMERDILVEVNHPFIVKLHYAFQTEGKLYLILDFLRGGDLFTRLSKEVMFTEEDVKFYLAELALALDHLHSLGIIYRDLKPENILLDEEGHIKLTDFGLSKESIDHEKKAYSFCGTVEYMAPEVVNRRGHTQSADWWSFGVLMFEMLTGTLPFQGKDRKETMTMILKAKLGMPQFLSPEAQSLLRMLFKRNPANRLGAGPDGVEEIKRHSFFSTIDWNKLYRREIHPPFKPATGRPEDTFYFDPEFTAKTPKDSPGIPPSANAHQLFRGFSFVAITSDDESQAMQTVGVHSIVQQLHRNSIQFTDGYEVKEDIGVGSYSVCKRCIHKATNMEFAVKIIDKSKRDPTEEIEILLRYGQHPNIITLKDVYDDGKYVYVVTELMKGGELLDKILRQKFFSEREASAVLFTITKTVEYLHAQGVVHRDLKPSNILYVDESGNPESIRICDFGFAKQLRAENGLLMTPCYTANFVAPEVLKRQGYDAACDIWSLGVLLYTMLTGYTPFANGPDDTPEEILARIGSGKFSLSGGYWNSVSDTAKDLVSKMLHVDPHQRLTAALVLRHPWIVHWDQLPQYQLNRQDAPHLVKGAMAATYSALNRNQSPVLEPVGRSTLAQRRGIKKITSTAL
As usually defined, the IC50 is the concentration at which inhibition is half-maximal. Take `C[C@@H]1CNC(=O)c2cc3ccc(C(=O)Nc4cnn(Cc5ccccc5)c4)cc3n2[C@H]1C` [Example 137, (4R,5S)-N-(1-benzyl-1H-pyrazol-4-yl)-trans-4,5-dimethyl-1-oxo-2,3,4,5-tetrahydro-1H-[1,4]diazepino[1,2-a]indole-8-carboxamide]: the IC50 amounted to 43.5 nM. For the molecule `CC(C)n1c(NC(=O)c2ccc3cc4n(c3c2)C(C)(C)CNC4=O)nc2ccccc21` [Example 73, 4,4-dimethyl-1-oxo-N-[1-(propan-2-yl)-1H-benzimidazol-2-yl]-1,2,3,4-tetrahydropyrazino[1,2-a]indole-7-carboxamide], the IC50 was 2 nM. Consider `C[C@@H]1NC(=O)c2cc3ccc(C(=O)Nc4nc5ccccc5n4CCCN(C)C)cc3n2[C@@H]1C` [Example 139, (3S,4R)-N-{1-[3-(dimethylamino)propyl]-1H-benzimidazol-2-yl}-3,4-dimethyl-1-oxo-1,2,3,4-tetrahydropyrazino[1,2-a]indole-7-carboxamide], for which the IC50 worked out at 0.18 nM.

As for `CC1(C)CNC(=O)c2cc3ccc(C(=O)Nc4cccnc4)cc3n2C1` [Example 9, 4,4-dimethyl-1-oxo-N-(pyridin-3-yl)-2,3,4,5-tetrahydro-1H-[1,4]diazepino[1,2-a]indole-8-carboxamide], the IC50 was determined as 4600 nM. As to `O=C(Nc1cc(C2CC2)on1)c1ccc2cc3n(c2c1)CCCNC3=O` [Example 183, N-(5-cyclopropyl-1,2-oxazol-3-yl)-1-oxo-2,3,4,5-tetrahydro-1H-[1,4]diazepino[1,2-a]indole-8-carboxamide], the IC50 turned out to be 26 nM.

On to `CN(C)CCCn1c(NC(=O)c2ccc3cc4n(c3c2)CC2(CCC2)CNC4=O)nc2ccccc21` [Example 97, N-{1-[3-(dimethylamino)propyl]-1H-benzimidazol-2-yl}-1′-oxo-2′,3′-dihydro-1′H-spiro[cyclobutane-1,4′-[1,4]diazepino[1,2-a]indole]-8′-carboxamide], for which the IC50 turned out to be 11 nM.

Take `O=C(Nc1cnn(CCN2CCOCC2)c1)c1ccc2cc3n(c2c1)CCCNC3=O` [Example 37, N-{1-[2-(morpholin-4-yl)ethyl]-1H-pyrazol-4-yl}-1-oxo-2,3,4,5-tetrahydro-1H-[1,4]diazepino[1,2-a]indole-8-carboxamide]: the IC50 came out at 84 nM. For the molecule `CC1(C)CNC(=O)c2cc3ccc(C(=O)Nc4ccccc4C(N)=O)cc3n21` [Example 221, N-(2-carbamoylphenyl)-4,4-dimethyl-1-oxo-1,2,3,4-tetrahydropyrazino[1,2-a]indole-7-carboxamide], the IC50 was determined as 8.2 nM.

For the molecule `CC1CNC(=O)c2cc3ccc(C(=O)Nc4cnn(C)c4)cc3n21` (stereo not drawn) [Example 22, 4-methyl-N-(1-methyl-1H-pyrazol-4-yl)-1-oxo-1,2,3,4-tetrahydropyrazino[1,2-a]indole-7-carboxamide], the IC50 was determined as 5.1 nM. On to `O=C(Nc1cc(C(F)(F)F)no1)c1ccc2cc3n(c2c1)CCCNC3=O` [Example 207, 1-oxo-N-[3-(trifluoromethyl)-1,2-oxazol-5-yl]-2,3,4,5-tetrahydro-1H-[1,4]diazepino[1,2-a]indole-8-carboxamide], for which the IC50 is 85 nM. For the molecule `C[C@@H]1NC(=O)c2cc3ccc(C(=O)Nc4cnn(Cc5ccccc5)c4)cc3n2[C@@H]1C` [Example 140, (3S,4R)-N-(1-benzyl-1H-pyrazol-4-yl)-3,4-dimethyl-1-oxo-1,2,3,4-tetrahydropyrazino[1,2-a]indole-7-carboxamide], the IC50 turned out to be 0.42 nM.

Turning to `O=C(Nc1nc2cc(Cl)cc(CN3CCOCC3)c2[nH]1)c1ccc2cc3n(c2c1)CCCNC3=O` [Example 46, N-[5-chloro-7-(morpholin-4-ylmethyl)-1H-benzimidazol-2-yl]-1-oxo-2,3,4,5-tetrahydro-1H-[1,4]diazepino[1,2-a]indole-8-carboxamide], the IC50 was 8.7 nM. The figure for `O=C(Nc1cc(-c2ccccc2)on1)c1ccc2cc3n(c2c1)CCCNC3=O` [Example 211, 1-oxo-N-(5-phenyl-1,2-oxazol-3-yl)-2,3,4,5-tetrahydro-1H-[1,4]diazepino[1,2-a]indole-8-carboxamide] is 290 nM. For the molecule `CC(=O)c1cccc(NC(=O)c2ccc3cc4n(c3c2)CCCNC4=O)c1` [Example 187, N-(3-acetylphenyl)-1-oxo-2,3,4,5-tetrahydro-1H-[1,4]diazepino[1,2-a]indole-8-carboxamide], the IC50 came out at 160 nM. In the case of `Cc1cccc(-c2cc(NC(=O)c3ccc4cc5n(c4c3)CCCNC5=O)on2)c1` [Example 200, N-[3-(3-methylphenyl)-1,2-oxazol-5-yl]-1-oxo-2,3,4,5-tetrahydro-1H-[1,4]diazepino[1,2-a]indole-8-carboxamide], the IC50 was 160 nM.

Regarding `O=C(Nc1nc2cc(C(F)(F)F)ccc2[nH]1)c1ccc2cc3n(c2c1)CCCNC3=O` [Example 43, 1-oxo-N-[5-(trifluoromethyl)-1H-benzimidazol-2-yl]-2,3,4,5-tetrahydro-1H-[1,4]diazepino[1,2-a]indole-8-carboxamide], the IC50 came out at 24 nM.

For the molecule `CC1CNC(=O)c2cc3ccc(C(=O)Nc4nc5ccccc5n4CCCN(C)C)cc3n21` (stereo not drawn) [Example 100, N-{1-[3-(dimethylamino)propyl]-1H-benzimidazol-2-yl}-4-methyl-1-oxo-1,2,3,4-tetrahydropyrazino[1,2-a]indole-7-carboxamide], the IC50 turned out to be 1.3 nM. As to `Cc1cc(C)cc(Cn2cc(NC(=O)c3ccc4cc5n(c4c3)CCCNC5=O)cn2)c1` [Example 28, N-[1-(3,5-dimethylbenzyl)-1H-pyrazol-4-yl]-1-oxo-2,3,4,5-tetrahydro-1H-[1,4]diazepino[1,2-a]indole-8-carboxamide], the IC50 amounted to 1.9 nM. In the case of `O=C(Nc1cccc(-c2c[nH]cn2)c1)c1ccc2cc3n(c2c1)CCCNC3=O` [Example 226, N-[3-(1H-imidazol-4-yl)phenyl]-1-oxo-2,3,4,5-tetrahydro-1H-[1,4]diazepino[1,2-a]indole-8-carboxamide], the IC50 amounted to 52 nM. The value for `NC(=O)c1ccccc1NC(=O)c1ccc2cc3n(c2c1)CCCNC3=O` [Example 215, N-(2-carbamoylphenyl)-1-oxo-2,3,4,5-tetrahydro-1H-[1,4]diazepino[1,2-a]indole-8-carboxamide] was 21 nM; that for `C[C@H]1CCNC(=O)c2cc3ccc(C(=O)Nc4cnn(Cc5ccccc5)c4)cc3n21` [Example 144, (5S)-N-(1-benzyl-1H-pyrazol-4-yl)-5-methyl-1-oxo-2,3,4,5-tetrahydro-1H-[1,4]diazepino[1,2-a]indole-8-carboxamide] was 80 nM.

`CC1CNC(=O)c2cc3ccc(C(=O)Nc4nc5ccccc5n4C)cc3n21` (stereo not drawn) [Example 61, 4-methyl-N-(1-methyl-1H-benzimidazol-2-yl)-1-oxo-1,2,3,4-tetrahydropyrazino[1,2-a]indole-7-carboxamide]: the IC50 came to 2.2 nM. As to `CNC(=O)c1ccccc1NC(=O)c1ccc2cc3n(c2c1)CCCNC3=O` [Example 229, N-[2-(methylcarbamoyl)phenyl]-1-oxo-2,3,4,5-tetrahydro-1H-[1,4]diazepino[1,2-a]indole-8-carboxamide], the concentration for half-maximal inhibition (IC50) came to 154 nM. `O=C(Nc1nc2ccccc2o1)c1ccc2cc3n(c2c1)CCCNC3=O` [Example 112, N-(1,3-benzoxazol-2-yl)-1-oxo-2,3,4,5-tetrahydro-1H-[1,4]diazepino[1,2-a]indole-8-carboxamide]: the half-inhibitory concentration (IC50) was determined as 370 nM.
